Earlier results as cited in patent US11224646B2, “Intranasal delivery of a cyclic-di-nucleotide adjuvanted vaccine for tuberculosis” (priority 2018, dated 2022).

Experiments:
[1] = system: phosphodiesterases
[2] = target: T1, murine STING (Mus musculus, UniProt Q3TBT3)
T1 sequence (Q3TBT3 1-378): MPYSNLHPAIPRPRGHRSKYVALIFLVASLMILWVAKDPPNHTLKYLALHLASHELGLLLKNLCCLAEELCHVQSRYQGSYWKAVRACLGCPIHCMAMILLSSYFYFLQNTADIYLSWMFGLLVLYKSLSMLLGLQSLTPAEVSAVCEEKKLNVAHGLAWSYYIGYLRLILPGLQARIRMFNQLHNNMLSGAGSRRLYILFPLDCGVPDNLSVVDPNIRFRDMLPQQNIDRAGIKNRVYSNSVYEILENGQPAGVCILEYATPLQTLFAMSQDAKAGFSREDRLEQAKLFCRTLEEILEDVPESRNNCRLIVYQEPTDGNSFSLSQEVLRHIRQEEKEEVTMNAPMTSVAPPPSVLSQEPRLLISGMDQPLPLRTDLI

[3] = system: five common human STING alleles

Row | Compound | hydrolysis by phosphodiesterases [1] | activation of murine STING [2] | engagement / activation of the five common human STING alleles [3]
1 | Nc1nc2c(ncn2[C@@H]2O[C@@H]3COP(=O)(S)O[C@H]4[C@@H](O)[C@H](n5cnc6c(N)ncnc65)O[C@@H]4CO[P@@](=O)(S)O[C@@H]2[C@@H]3O)c(=O)[nH]1 (stereo partly drawn) [ML-RR-cGAMP, dithio-[RP, RP]-cyclic-[G(2′,5′)pA(3′,5′)p]] | resistant to hydrolysis by phosphodiesterases |  | 
2 | Nc1nc2c(ncn2[C@@H]2O[C@@H]3CO[P@@](=O)(S)O[C@H]4[C@@H](O)[C@H](n5cnc6c(=O)[nH]c(N)nc65)O[C@@H]4CO[P@@](=O)(S)O[C@H]3[C@H]2O)c(=O)[nH]1 [RR-CDG, dithio-[RP, RP]-cyclic-[G(3′,5′)pG(3′,5′)p]] |  | efficiently activates murine STING | does not engage all five common STING alleles
